From patent US20160304970A1, “GENE BIOMARKER TO DIAGNOSE METASTIC LIVER CANCER AND METHODS FOR TARGETING THE SAME” (University of Southern California, priority 2015, published 2016) come the findings set out here.

In assay [1] the test system is CD133 (+) Huh7 cells. In words: Tumor spheroid formation assay. Conditions: CD133 (+) group; ATRA 5 μg/ml, SAHA 0.5 μg/ml; 2 weeks. The assay is classed as cell-based, human. As for the experimental part:
Freshly sorted CD133(+)/(−) Huh7 cells were plated in a low binding culture plate (NUNC 145397) containing 100 cells per well in 100 μl of culture medium with ATRA (5 μg/ml), SAHA (0.5 μg/ml), or a combination of both. After 2 weeks, colony numbers were counted.

Another assay has as its system PTEN. The assay is described as follows: PTEN 3′-UTR luciferase reporter and western blot of PTEN-FOXO pathway. The format is cell-based. Conditions: FIG. 47D.
The test system of assay [2] is CD133 (+) Huh7 cells. In words: In vivo tumorigenicity, CD133 (+) Huh7 cells in NOG mice. Set-up: species or system mouse. The procedure: The TUNEL staining was performed according to the manufacturer's instructions (4810-30-K, TREVIGEN). In brief, paraffin-embedded tumor sections from each group were de-paraffinized, re-hydrated, and washed twice in PBS. Samples were covered with Proteinase K solution for 30 minutes at room temperature and then washed two times in deionized water. Slides were immersed in quenching solution for 5 minutes at room temperature and then washed in PBS. Slides were incubated in TdT labeling buffer for 5 minutes, immersed with labeling reaction mix, and incubated at 37° C. for 1 hour in a humidity chamber. Samples were immersed in TdT stop buffer for 5 minutes and then washed twice in deionized water for 5 minutes each at room temperature. Samples were covered with Strep-HRP solution and incubated for 10 minutes at 37° C. and washed twice in PBS. Samples were incubated in DAB solution for 5 minutes and then washed in deionized water several times. The samples were counterstained with Methyl Green and mounted on slides for observation.
CD133 was conjugated to the terminal amine functionality on a polyethylene glycol block of polylactide-polyethylene glycol (PLA-PEG) as previously described (Swaminathan et al., 2013). PLGA (30 mg) was dissolved in 1 ml chloroform containing ATRA (6 mg). An oil-in-water emulsion was formed by emulsifying the polymer drug solution in 6 ml of 2.5% w/v aqueous PVA solution by sonication (Sonicator®XL, Misonix, N.Y.) for 5 minutes in an ice bath. The PLA-PEG-CD133 conjugate was dissolved in chloroform (8 mg/100 μl) and added to the oil-in-water emulsion with stirring. The emulsion was stirred for 18 hours at ambient conditions followed by 2 hours under vacuum to remove residual chloroform. Nanoparticles were recovered by ultracentrifugation (35,000 rpm for 35 minutes at 4° C.; OptimaTMLE-80K, Beckman, Palo Alta, Calif.) and washed three times with deionized water to remove excess PVA and unencapsulated drugs. The nanoparticle suspension was then lyophilized (Labconco, FreeZone 4.5, Kansas City, Mo.). Before injection, the lyophilized nanoparticles were re-dissolved in PBS and filtered with a 0.22 micron filter.
A half million freshly sorted CD133 (+) TICs were suspended in 100 μl of Matrigel™ (BD) and injected subcutaneously into NOD/Shi-scid/IL-2Rγ^null(NOG) mice, six mice per group. After the tumor volume reached 100 mm^3, animals received one intravenous dose of CD133-conjugated RA nanoparticle (5 μg/ml) and SAHA (0.5 μg/ml) daily. The animals were monitored regularly for tumor growth and survival every day. All animals work was performed according to national and international guidelines. Animal studies were based on a protocol approved by the Institutional Animal Care and Use Committee at University of Southern California.

The test system of assay [3] is Huh7, Hep3B, HepG2, human CSCs and mouse CSCs. The assay is described as follows: Combination dose determination, cell viability of HCC cells. The format is cell-based. The procedure:
Freshly sorted CD133 (+) Huh7 or mouse TICs were plated in 100 μl of medium containing 5000 cells per well in a 96-well plate. After 16 hours, 0.5 μl of a 2 μg/ml, 1 μg/ml, 0.2 μg/ml, 0.1 μg/ml, 0.02 μg/ml, or 0.01 μg/ml compound was added to each well in triplicate, resulting in a 10 μg/ml, 5 μg/ml, 1 μg/ml, 0.5 μg/ml, 0.1 μg/ml, and 0.05 μg/ml final concentration for most compounds, respectively. After 48 hours, the cells were either measured for cell viability by Cell-Glo® Reagent (Promega), or fixed with 1% PFA (paraformaldehyde) and stained with DAPI for high-throughput screening.

For a further assay, the system named is patient-derived TICs. In words: Subcutaneous xenograft of patient-derived TICs in NSG mice. The assay is classed as in vivo, mouse. Particulars: no ATRA, i.p. As for the experimental part:
To establish prognostic biomarkers for the best combination chemotherapy, five different patient-derived TICs were tested for responses as xenografts in NSG mice for the best combination chemotherapy based on mutation/transcriptome subtypes. Anti-tumorigenic ability by ATRA+SAHA targeting TICs encapsulated with SAHA was validated (Table 3). […] As placebo treatment, solvent (DMSO) in an equal total volume (0.2 ml/mouse) was injected. Tumor growth kinetics was studied. Combination of ATRA with SAHA further inhibited the self-renewal abilities of TICs in vivo (FIG. 17E).

The subject of assay [4] is CD133 (+) Huh7 cells. In words: Anchorage-independent growth assay in soft agar. Particulars: retinoic acid 5 μg/ml, SAHA 0.5 μg/ml; 2 weeks. The format is cell-based, human. As for the experimental part:
Freshly sorted CD133 (+)/(−) Huh7 cells were mixed with 0.35% agarose containing 1000 cells per well in culture medium with retinoic acid (5 μg/ml), SAHA (0.5 μg/ml), or a combination of both. After 2 weeks, the colony numbers were counted.

For a further assay, the system named is Nanog. The assay is described as follows: Nanog-GFP reporter cell screening. The format is cell-based, mouse. Conditions: TICs with lentivirus Nanog-GFP reporter. The procedure: The Nanog-GFP liver cancer stem cell line was transduced with pGreenZeo-Nanog transcriptional reporter lentivirus vector (System Biosciences SR10031VA-1). The transduced cells were positively selected with zeomycin (10 μg/ml) and further sorted for the GFP-high population (˜20% of total population) for drug screening. Nanog-GFP liver cancer stem cells were then seeded in 100 μl medium containing 5000 cells per well in a 96-well plate. After 16 hours, 0.5 μl of a […] compound was added to each well, resulting in a 10 μg/ml final concentration for most compounds. After 12 hours, the cells were fixed with 1% Paraformadehyde and stained with DAPI; compounds were screened in duplicate. The GFP and DAPI images were acquired using a BD Pathway Bioimaging Systems instrument. Z-score was calculated from the data using the formula z=(X−u)/s.d., where u is the mean, s.d. is the standard deviation of the whole population and X is the sample value calculated based on the ratio of GFP intensity to DAPI intensity. The z-score of selected hits must be less than −1.0. The average of z-score of vehicle control is 2.0±1.04.

Turning to `O=C(CCCCCCC(=O)Nc1ccccc1)NO` [SAHA, suberoylanilide hydroxamic acid], the “reduction of colony numbers, tumor spheroid formation” value with CD133 (+) Huh7 cells [1] worked out at 66%. Further, in the assay with PTEN, the “luciferase-PTEN 3′-UTR reporter activity” value was “increased”. The tumor growth result in the assay with CD133 (+) Huh7 cells [2] (ATRA 5 μg/ml in CD133 antibody-conjugated nanoparticles, SAHA 0.5 μg/ml, after 4 days of treatment) was “did not reduce or even promote tumor growth”. Moreover, in the assay with CD133 (+) Huh7 cells [2] (NOG mice, CD133 (+) Huh7 tumors), the “tumor morphology, hematoxylin and eosin stained sections” value is recorded as “did not induce cell death of tumor cells”. Also, the “cell growth / viability in vitro” value in assay [3] was “failed to reduce cell growth in vitro”. Besides, the results for the “anti-tumorigenic ability, % (animals/total)” value with patient-derived TICs (SAHA 8 mg/kg (human: 300 mg)), with patient-derived TICs (SAHA 10 mg/kg (human: 400 mg)) and with patient-derived TICs (SAHA 12 mg/kg (human: 500 mg)) were 10% (2/20), 5% (1/20) and 10% (2/20), respectively. For the same compound, the “reduction of colony numbers, anchorage independent growth in soft agar” value in the assay on CD133 (+) Huh7 cells [4] came out at 50%. Also, the Nanog expression entry in the assay on Nanog is recorded as “suppressed Nanog expression”.
